Data: patent US20070202116A1, “Treatment of micro-organism infection” (priority 2001, published 2007)
Like-named read-outs stand apart in the source and are kept apart here.

Key:
[1] = system: EMRSA strains, vancomycin resistant subpopulations, Linzolid resistant strains; assay: Checkerboard MIC / FIC / FIX of vancomycin and Aurograb (Tables 9, 10); type: cell-based, S. aureus; details: for MIC In combination: VAN with Aurograb; for MIC: Staphylococcus aureus
Experimental: In order to determine the Minimum Inhibitory Concentration (MIC), the Fractional Inhibitory Concentration (FIC) and the FIX (fractional inhibitory index), the following was method was used.
The cells were diluted in Isosensitest Broth (Oxoid, UK) to give a final inoculum of […] cells per mL. […] To this was added exogenous Aurograb in the range 0.3-25 μg/ml in a checkerboard formation. A negative control series was also prepared containing Aurograb formulation buffer alone. Cultures were incubated for 48 hours at 37° C.
The minimum inhibitory concentration (MIC) was defined as the lowest concentration of agent at which no bacterial growth occurred and was determined by spectrophotometric evaluation of the lack of turbidity (growth) in culture.
Fractional inhibitory concentrations (FIC) and FIX values were calculated. Synergistic activity between the two agents was defined as an FIX value ≦0.5. Indifferent activity was defined as a value of 0.5-4, and a value of ≧4 defined antagonism.
The MIC (Alone) column indicates the minimum inhibitory concentration of the agent when administered alone. The MIC (In combination) column indicates the minimum inhibitory concentration of each drug when used in combination.

[2] = system: EMRSA-15; type: in vivo, S. aureus; details: Group 3: Vancomycin 6 mg/kg alone iv
Experimental: Methods: 60 female CD-1 mice (22-24 g) were given 1×10^7 cfu of EMRSA-15 as a 100 μl iv bolus.
All mice were terminated at 48 hours for culture of kidney, liver and spleen.
Results: expressed as log cfu per gram of tissue, unless the majority of mice (>5) were cleared (ie organs were culture-negative). N/A=not applicable. (Table 7)

[3] = system: EMRSA-15; type: in vivo, S. aureus; details: for Survivors at 24 h (n = 10): 8×10^7 cfu; for Mortality: 10 mice
Experimental: Method: 60 female CD-I mice (22-24 g) were given S. aureus (a fresh clinical isolate of EMRSA-15) at a dose of 8×10^7 cfu in a 100 μl iv bolus.
All mice were terminated at 48 hours for culture of kidney, liver and spleen. Mice fatalities prior to the 48 hour cull were not subject to organ colony counts.

Compound: CN[C@H](CC(C)C)C(=O)N[C@H]1C(=O)N[C@@H](CC(N)=O)C(=O)N[C@H]2C(=O)N[C@H]3C(=O)N[C@H](C(=O)N[C@H](C(=O)O)c4cc(O)cc(O)c4-c4cc3ccc4O)[C@H](O)c3ccc(c(Cl)c3)Oc3cc2cc(c3O[C@@H]2O[C@H](CO)[C@@H](O)[C@H](O)[C@H]2O[C@H]2C[C@](C)(N)[C@H](O)[C@H](C)O2)Oc2ccc(cc2Cl)[C@H]1O [Vancomycin, vancomycin]
- MIC In combination ([1]; EMRSA strain 1): 0.03 µg/mL
- MIC In combination ([1]; EMRSA strain 1A): 1 µg/mL
- MIC In combination ([1]; EMRSA strain 2): 0.03 µg/mL
- MIC In combination ([1]; EMRSA strain 2A): 1 µg/mL
- MIC In combination ([1]; EMRSA strain 3): 0.03 µg/mL
- MIC In combination ([1]; EMRSA strain 4): 0.03 µg/mL
- MIC In combination ([1]; EMRSA strain 5): 0.03 µg/mL
- MIC In combination ([1]; EMRSA strain 6): 0.125 µg/mL
- MIC In combination ([1]; EMRSA strain 7): 0.03 µg/mL
- MIC In combination ([1]; EMRSA strain 8): 0.03 µg/mL
- MIC In combination ([1]; EMRSA strain 8A): 0.03 µg/mL
- MIC In combination ([1]; EMRSA strain 9): 0.0125 µg/mL
- MIC In combination ([1]; EMRSA strain 10): 0.03 µg/mL
- MIC In combination ([1]; EMRSA strain 11): 0.03 µg/mL
- MIC In combination ([1]; EMRSA strain 11A): 1 µg/mL
- MIC In combination ([1]; EMRSA strain 12): 0.03 µg/mL
- MIC In combination ([1]; EMRSA strain 12A): 0.03 µg/mL
- MIC In combination ([1]; EMRSA strain 13): 0.03 µg/mL
- MIC In combination ([1]; EMRSA strain 14): 0.03 µg/mL
- MIC In combination ([1]; EMRSA strain 15): 0.03 µg/mL
- MIC In combination ([1]; EMRSA strain 15A): 0.03 µg/mL
- MIC In combination ([1]; EMRSA strain 16): 0.03 µg/mL
- MIC In combination ([1]; EMRSA strain 17): 1 µg/mL
- MIC In combination ([1]; NARSA 1 (Hiramatsu)): 2 µg/mL
- MIC In combination ([1]; NARSA 2 (Hiramatsu)): 0.5 µg/mL
- MIC In combination ([1]; NARSA 12 (France)): 1 µg/mL
- MIC In combination ([1]; NARSA 17 (New York)): 2 µg/mL
- MIC In combination ([1]; NARSA 119 (Linezolid R)): 1 µg/mL
- MIC In combination ([1]; NARSA 120 (Linezolid R)): 1 µg/mL
- MIC In combination ([1]; NARSA 121 (Linezolid R)): 1 µg/mL
- MIC ([1]; read-out: MIC Alone, EMRSA strain 1): 0.5 µg/mL
- MIC ([1]; read-out: MIC Alone, EMRSA strain 1A): 8 µg/mL
- MIC ([1]; read-out: MIC Alone, EMRSA strain 2): 0.5 µg/mL
- MIC ([1]; read-out: MIC Alone, EMRSA strain 2A): 8 µg/mL
- MIC ([1]; read-out: MIC Alone, EMRSA strain 3): 0.5 µg/mL
- MIC ([1]; read-out: MIC Alone, EMRSA strain 4): 0.5 µg/mL
- MIC ([1]; read-out: MIC Alone, EMRSA strain 5): 0.5 µg/mL
- MIC ([1]; read-out: MIC Alone, EMRSA strain 6): 0.5 µg/mL
- MIC ([1]; read-out: MIC Alone, EMRSA strain 7): 0.5 µg/mL
- MIC ([1]; read-out: MIC Alone, EMRSA strain 8): 0.5 µg/mL
- MIC ([1]; read-out: MIC Alone, EMRSA strain 8A): 0.5 µg/mL
- MIC ([1]; read-out: MIC Alone, EMRSA strain 9): 0.5 µg/mL
- MIC ([1]; read-out: MIC Alone, EMRSA strain 10): 0.5 µg/mL
- MIC ([1]; read-out: MIC Alone, EMRSA strain 11): 0.5 µg/mL
- MIC ([1]; read-out: MIC Alone, EMRSA strain 11A): 4 µg/mL
- MIC ([1]; read-out: MIC Alone, EMRSA strain 12): 0.5 µg/mL
- MIC ([1]; read-out: MIC Alone, EMRSA strain 12A): 0.5 µg/mL
- MIC ([1]; read-out: MIC Alone, EMRSA strain 13): 0.5 µg/mL
- MIC ([1]; read-out: MIC Alone, EMRSA strain 14): 0.5 µg/mL
- MIC ([1]; read-out: MIC Alone, EMRSA strain 15): 0.5 µg/mL
- MIC ([1]; read-out: MIC Alone, EMRSA strain 15A): 0.5 µg/mL
- MIC ([1]; read-out: MIC Alone, EMRSA strain 16): 0.5 µg/mL
- MIC ([1]; read-out: MIC Alone, EMRSA strain 17): 4 µg/mL
- MIC ([1]; read-out: MIC Alone, NARSA 1 (Hiramatsu)): 8 µg/mL
- MIC ([1]; read-out: MIC Alone, NARSA 2 (Hiramatsu)): 3 µg/mL
- MIC ([1]; read-out: MIC Alone, NARSA 12 (France)): 8 µg/mL
- MIC ([1]; read-out: MIC Alone, NARSA 17 (New York)): 8 µg/mL
- MIC ([1]; read-out: MIC Alone, NARSA 119 (Linezolid R)): 4 µg/mL
- MIC ([1]; read-out: MIC Alone, NARSA 120 (Linezolid R)): 4 µg/mL
- MIC ([1]; read-out: MIC Alone, NARSA 121 (Linezolid R)): 4 µg/mL
- Liver, number of mice cleared ([2]; 10 mice): N/A (8 clear)
- Spleen, number of mice cleared ([2]; 10 mice): 5
- Liver, number of mice cleared ([2]; 10 mice, listed as vancomycin): 8
- Kidney Log cfu/g of tissue ([2]; 48 hours): 6.53 ± 1.53 Log cfu/g of tissue
- Survivors at 24 h (n = 10) ([3]; Group 2: Vancomycin 4.0 mg/kg alone iv): 4
- Survivors at 24 h (n = 10) ([3]; Group 4: Vancomycin 2.0 mg/kg alone iv): 5
- Mortality ([3]; vancomycin alone 2.0 mg/kg): 5 deaths
- Mortality ([3]; vancomycin alone 4.0 mg/kg): 6 deaths
